Experimental data as given in the NIST ThermoML archive (doi:10.1021/je700438d).
± gives the expanded uncertainty stated by the source.

Test: mn = molality of the nth substance listed, in mol/kg
Settings: Liquid, Vibrating tube method

SMILES: [Cl-].[Li+] [lithium chloride] + CCO
- mass density (323.15 K, 10050 kPa, m1 = 0.5873): 793.02 ± 0.44 kg/m3
- mass density (323.15 K, 10080 kPa, m1 = 2.022): 833.25 ± 0.43 kg/m3
- mass density (323.15 K, 10080 kPa, m1 = 2.88): 854.11 ± 0.43 kg/m3
- mass density (323.15 K, 10200 kPa, m1 = 1.222): 811.76 ± 0.44 kg/m3
- mass density (323.15 K, 10230 kPa, m1 = 0.3023): 784 ± 0.44 kg/m3
- mass density (323.15 K, 15060 kPa, m1 = 0.3023): 788.31 ± 0.46 kg/m3
- mass density (323.15 K, 15230 kPa, m1 = 2.022): 837.42 ± 0.44 kg/m3
- mass density (323.15 K, 15240 kPa, m1 = 2.88): 858.04 ± 0.43 kg/m3
- mass density (323.15 K, 15290 kPa, m1 = 1.222): 816.02 ± 0.45 kg/m3
- mass density (323.15 K, 15320 kPa, m1 = 0.1049): 781.93 ± 0.46 kg/m3
- mass density (323.15 K, 15620 kPa, m1 = 0.5873): 797.87 ± 0.46 kg/m3
- mass density (323.15 K, 20040 kPa, m1 = 0.1049): 786.01 ± 0.48 kg/m3
- mass density (323.15 K, 20060 kPa, m1 = 2.88): 861.48 ± 0.44 kg/m3
- mass density (323.15 K, 20150 kPa, m1 = 1.222): 819.88 ± 0.46 kg/m3
- mass density (323.15 K, 20410 kPa, m1 = 2.022): 841.36 ± 0.45 kg/m3
- mass density (323.15 K, 20450 kPa, m1 = 0.3023): 792.88 ± 0.48 kg/m3
- mass density (323.15 K, 20470 kPa, m1 = 0.5873): 801.87 ± 0.47 kg/m3
- mass density (323.15 K, 25040 kPa, m1 = 0.3023): 796.57 ± 0.49 kg/m3
- mass density (323.15 K, 25060 kPa, m1 = 0.1049): 790.15 ± 0.5 kg/m3
- mass density (323.15 K, 25060 kPa, m1 = 1.222): 823.57 ± 0.48 kg/m3
- mass density (323.15 K, 25140 kPa, m1 = 0.5873): 805.52 ± 0.49 kg/m3
- mass density (323.15 K, 25300 kPa, m1 = 2.88): 864.98 ± 0.45 kg/m3
- mass density (323.15 K, 25310 kPa, m1 = 2.022): 844.84 ± 0.46 kg/m3
- mass density (323.15 K, 30010 kPa, m1 = 2.022): 847.97 ± 0.47 kg/m3
- mass density (323.15 K, 30060 kPa, m1 = 0.3023): 800.4 ± 0.51 kg/m3
- mass density (323.15 K, 30060 kPa, m1 = 0.5873): 809.15 ± 0.51 kg/m3
- mass density (323.15 K, 30070 kPa, m1 = 2.88): 867.94 ± 0.46 kg/m3
- mass density (323.15 K, 30150 kPa, m1 = 0.1049): 794.13 ± 0.52 kg/m3
- mass density (323.15 K, 30420 kPa, m1 = 1.222): 827.32 ± 0.49 kg/m3
- mass density (323.15 K, 35020 kPa, m1 = 0.3023): 803.97 ± 0.53 kg/m3
- mass density (323.15 K, 35210 kPa, m1 = 2.88): 870.9 ± 0.47 kg/m3
- mass density (323.15 K, 35220 kPa, m1 = 0.5873): 812.74 ± 0.53 kg/m3
- mass density (323.15 K, 35410 kPa, m1 = 1.222): 830.59 ± 0.51 kg/m3
- mass density (323.15 K, 35420 kPa, m1 = 2.022): 851.3 ± 0.49 kg/m3
- mass density (323.15 K, 35610 kPa, m1 = 0.1049): 798.15 ± 0.54 kg/m3
- mass density (323.15 K, 39860 kPa, m1 = 2.88): 873.36 ± 0.48 kg/m3
- mass density (323.15 K, 39940 kPa, m1 = 0.1049): 801.15 ± 0.56 kg/m3
- mass density (323.15 K, 39960 kPa, m1 = 1.222): 833.36 ± 0.52 kg/m3
- mass density (323.15 K, 39970 kPa, m1 = 0.5873): 815.82 ± 0.54 kg/m3
- mass density (323.15 K, 39970 kPa, m1 = 2.022): 853.89 ± 0.5 kg/m3
- mass density (323.15 K, 39980 kPa, m1 = 0.3023): 807.32 ± 0.55 kg/m3
- mass density (348.15 K, 140 kPa, m1 = 0.1049): 743.86 ± 0.42 kg/m3
- mass density (348.15 K, 150 kPa, m1 = 2.022): 803.25 ± 0.42 kg/m3
- mass density (348.15 K, 170 kPa, m1 = 0.3023): 751.06 ± 0.42 kg/m3
- mass density (348.15 K, 420 kPa, m1 = 1.222): 780.84 ± 0.42 kg/m3
- mass density (348.15 K, 540 kPa, m1 = 2.88): 825.55 ± 0.41 kg/m3
- mass density (348.15 K, 740 kPa, m1 = 0.5873): 761.48 ± 0.42 kg/m3
- mass density (348.15 K, 4960 kPa, m1 = 2.022): 808.25 ± 0.42 kg/m3
- mass density (348.15 K, 5060 kPa, m1 = 0.3023): 756.68 ± 0.44 kg/m3
- mass density (348.15 K, 5060 kPa, m1 = 0.5873): 766.32 ± 0.43 kg/m3
- mass density (348.15 K, 5060 kPa, m1 = 1.222): 785.85 ± 0.43 kg/m3
- mass density (348.15 K, 5080 kPa, m1 = 0.1049): 749.63 ± 0.44 kg/m3
- mass density (348.15 K, 5140 kPa, m1 = 2.88): 829.96 ± 0.42 kg/m3
- mass density (348.15 K, 10030 kPa, m1 = 2.022): 813.19 ± 0.44 kg/m3
- mass density (348.15 K, 10060 kPa, m1 = 0.1049): 755.18 ± 0.45 kg/m3
- mass density (348.15 K, 10070 kPa, m1 = 0.3023): 762.15 ± 0.45 kg/m3
- mass density (348.15 K, 10080 kPa, m1 = 2.88): 834.46 ± 0.43 kg/m3
- mass density (348.15 K, 10210 kPa, m1 = 1.222): 791.09 ± 0.44 kg/m3
- mass density (348.15 K, 10530 kPa, m1 = 0.5873): 772.13 ± 0.45 kg/m3
- mass density (348.15 K, 14960 kPa, m1 = 2.022): 817.67 ± 0.45 kg/m3
- mass density (348.15 K, 15060 kPa, m1 = 2.88): 838.73 ± 0.44 kg/m3
- mass density (348.15 K, 15120 kPa, m1 = 0.3023): 767.36 ± 0.47 kg/m3
- mass density (348.15 K, 15280 kPa, m1 = 1.222): 795.92 ± 0.46 kg/m3
- mass density (348.15 K, 15290 kPa, m1 = 0.5873): 776.89 ± 0.47 kg/m3
- mass density (348.15 K, 15410 kPa, m1 = 0.1049): 760.81 ± 0.47 kg/m3
- mass density (348.15 K, 20030 kPa, m1 = 2.022): 821.94 ± 0.46 kg/m3
- mass density (348.15 K, 20060 kPa, m1 = 0.1049): 765.44 ± 0.49 kg/m3
- mass density (348.15 K, 20070 kPa, m1 = 2.88): 842.77 ± 0.45 kg/m3
